We go through 1 molecule from BindingDB's records for doi:10.1016/0960-894X(96)00010-8 (1996).

Molecules are shown by their SMILES.

This experiment in a line: Inhibition of voltage sensitive calcium channel of embryonic chick dorsal root ganglion (DRG) cells.

Turning to `COc1ccc(OC)c(-n2c(N)nc3cc(C(F)(F)F)ccc32)c1` [1-(2,5-Dimethoxy-phenyl)-5-trifluoromethyl-1H-benzoimidazol-2-ylamine], the IC50 (in general, the concentration needed to halve the response being measured) is 32 µM.
